This is an account of results in patent publication US20250367129A1, “Lipid Compounds and Uses Thereof” (Pfizer Inc., priority 2022, published 2025).

Series [1] can be described thus: LNP size and polydispersity index by Malvern Zetasizer dynamic light scattering (CA HA modFlu mRNA LNPs). In kind it is physicochemical. As to conditions: DLS; for Size (nm): LNP of the ionizable lipid:cholesterol:DSPC:ALC-0159 about 46.3:42.7:9.4:1.6, N:P about 6:1, CA HA modFlu mRNA; for PDI: LNP with CA HA modFlu mRNA. The procedure, abridged: (§1)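 LNPs of ionizable lipid:cholesterol:DSPC:ALC-0159 (molar ratio about 46.3:42.7:9.4:1.6) formed by syringe-pump mixing of ethanolic lipids with mRNA at N:P about 6:1, then dialysed into buffer (e.g., Tris) and filtered. Size and PDI measured by DLS; total RNA and encapsulation efficiency by RiboGreen.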

Series [2] relates to HEK293F cells. Put plainly: In vitro expression of novel ionizable lipid nanoparticles, high content imaging (CA HA modFlu mRNA). In kind it is cell-based. As to conditions: LNP with CA HA modFlu mRNA. The procedure, abridged: (§2)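 Lipid nanoparticles of ionizable lipid, cholesterol, DSPC and ALC-0159 (about 46.3:42.7:9.4:1.6 molar), N:P about 6:1, carrying mRNA, dosed onto cells overnight at 37° C., 5% CO2. Cells fixed and stained with Hoechst plus antibody to encoded protein; nuclei and antigen-positive cells counted by high-content imaging.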

Series [3] deals with Hela cells. The description is as above. In kind it is cell-based. To be noted: LNP with CA HA modFlu mRNA. The gist of the method:
as §2

The nature of series [4]: Encapsulation efficiency, RiboGreen RNA quantitation assay (CA HA modFlu mRNA LNPs). As to conditions: LNP with CA HA modFlu mRNA. Format: physicochemical. The gist of the method:
as §1

Some results are limits rather than exact numbers.

Take `CCCCCCCCC(CC1CC=CC1)C(=O)OCC(COC(=O)C(CCCCCCCC)CC1CC=CC1)N1CCC2(CCN(CCCCO)CC2)CC1` (stereo not shown) [Example 35, 2-(9-(4-hydroxybutyl)-3,9-diazaspiro[5.5]undecan-3-yl)propane-1,3-diyl bis(2-(cyclopent-3-en-1-ylmethyl)decanoate)]: in series [1], the “Size (nm)” value is recorded as 102 nm and the PDI was found to be 0.040. For the same compound, the “EC50 Hek293F (ng/well)” value in series [2] is recorded as 21.3 ng/well. Also, the “EC50 Hela (ng/well)” value in series [3] came out at 1.4 ng/well. Further, in series [4], the EE % amounted to 99%.
For the compound `CCCCCCCCC(CCC1CCC1)C(=O)OCC(COC(=O)C(CCCCCCCC)CCC1CCC1)N1CCC2(CCN(CCCCO)CC2)CC1` (stereo not shown) [Example 36, 2-(9-(4-hydroxybutyl)-3,9-diazaspiro[5.5]undecan-3-yl)propane-1,3-diyl bis(2-(2-cyclobutylethyl)decanoate)], in series [1], the “Size (nm)” value is listed as 136 nm and the PDI came out at 0.059. For the same compound, the “EC50 Hek293F (ng/well)” value in series [2] was 1.9 ng/well. For the same compound, the “EC50 Hela (ng/well)” value in series [3] is given as 2.4 ng/well. The compound further gave an EE % in series [4] of 99%.
Take `CCCCCCCCC(CC1CCCCC1)C(=O)OCC(COC(=O)C(CCCCCCCC)CC1CCCCC1)N1CCC2(CCN(CCCCO)CC2)CC1` (stereo not shown) [Example 37, 2-(9-(4-hydroxybutyl)-3,9-diazaspiro[5.5]undecan-3-yl)propane-1,3-diyl bis(2-(cyclohexylmethyl)decanoate)]: in series [1], the “Size (nm)” value stood at 143 nm and the PDI was 0.070. For the same compound, the “EC50 Hek293F (ng/well)” value in series [2] stood at 0.67 ng/well. For the same compound, the “EC50 Hela (ng/well)” value in series [3] stood at 0.90 ng/well. In series [4], the EE % amounted to 99%.
As to `CCCCC(CCCC)C(CCCC)CCC(=O)OCC(COC(=O)CCC(CCCC)C(CCCC)CCCC)N1CCC2(CCN(CCCCO)CC2)CC1` (stereo not shown) [Example 38, 2-(9-(4-hydroxybutyl)-3,9-diazaspiro[5.5]undecan-3-yl)propane-1,3-diyl bis(4,5-dibutylnonanoate)], in series [1], the “Size (nm)” value worked out at 146 nm and the PDI is listed as 0.100. Besides, the “EC50 Hek293F (ng/well)” value in series [2] is given as 28.1 ng/well. Also, the “EC50 Hela (ng/well)” value in series [3] is 7.0 ng/well. In addition, in series [4], the EE % amounted to 100%.
Consider `CCCCCCC(CCCC)(CCCC)CC(=O)OCC(COC(=O)CC(CCCC)(CCCC)CCCCCC)N1CCC2(CCN(CCCCO)CC2)CC1` [Example 39, 2-(9-(4-hydroxybutyl)-3,9-diazaspiro[5.5]undecan-3-yl)propane-1,3-diyl bis(3,3-dibutylnonanoate)], for which, in series [1], the “Size (nm)” value is on record as 134 nm and the PDI was 0.080. In series [2], the “EC50 Hek293F (ng/well)” value stood at 4.1 ng/well. For the same compound, in series [3], the “EC50 Hela (ng/well)” value came to 3.4 ng/well. Also, in series [4], the EE % is 100%.
As to `CCCCCCCC(CCCCCCC)CCC(=O)OCC(COC(=O)CCC(CCCCCCC)CCCCCCC)N1CCC2(CCN(CCCCO)CC2)CC1` [Example 40, 2-(9-(4-hydroxybutyl)-3,9-diazaspiro[5.5]undecan-3-yl)propane-1,3-diyl bis(4-heptylundecanoate)], in series [1], the “Size (nm)” value stood at 117 nm and the PDI is 0.080. Also, the “EC50 Hek293F (ng/well)” value in series [2] came to 5.6 ng/well. Besides, the “EC50 Hela (ng/well)” value in series [3] is 3.6 ng/well. In series [4], this compound returned an EE % of 100%.
Take `CCCCCCCC(CCCCCCC)C(=O)OCC(COC(=O)C(CCCCCCC)CCCCCCC)N1CCC2(CCN(CCCCCO)C2)C1` (stereo not shown) [Example 41, 2-(7-(5-hydroxypentyl)-2,7-diazaspiro [4.4]nonan-2-yl)propane-1,3-diyl bis(2-heptylnonanoate)]: in series [1], the “Size (nm)” value is recorded as 119 nm and the PDI is recorded as 0.060. In addition, the “EC50 Hek293F (ng/well)” value in series [2] was 0.20 ng/well. The “EC50 Hela (ng/well)” value in series [3] was found to be 0.30 ng/well. In series [4], this compound registered an EE % of 99%.
Regarding `CCCCCCCCCC(=O)OCC(COC(=O)C(CCCCCC)CCCCCCCC)N1CCC2(CCN(CCCCO)CC2)CC1` (stereo not shown) [Example 42, 3-(decanoyloxy)-2-(9-(4-hydroxybutyl)-3,9-diazaspiro[5.5]undecan-3-yl)propyl 2-hexyldecanoate], in series [1], the “Size (nm)” value is given as 100 nm and the PDI turned out to be 0.080. Further, in series [2], the “EC50 Hek293F (ng/well)” value is listed as 42.7 ng/well. Besides, the “EC50 Hela (ng/well)” value in series [3] is on record as more than 50 ng/well. In addition, the EE % in series [4] was 99%.
With `CCCCCC/C=C\CCCC(=O)OCC(COC(=O)C(CCCCCC)CCCCCCCC)N1CCC2(CCN(CCCCO)CC2)CC1` (stereo not shown) [Example 43, 3-((2-hexyldecanoyl)oxy)-2-(9-(4-hydroxybutyl)-3,9-diazaspiro[5.5]undecan-3-yl)propyl (Z)-dodec-5-enoate], in series [1], the “Size (nm)” value was found to be 89 nm and the PDI came out at 0.111. Also, in series [2], the “EC50 Hek293F (ng/well)” value is given as 33.3 ng/well. In addition, the “EC50 Hela (ng/well)” value in series [3] came to 14.2 ng/well. In series [4], this compound yielded an EE % of 99%.
Take `CCCCCCCCC(CCCCCC)C(=O)OCC(COC(=O)C(CCCCCCCC)CC1CCC1)N1CCC2(CCN(CCCCO)CC2)CC1` (stereo not shown) [Example 44, 3-((2-(cyclobutylmethyl)decanoyl)oxy)-2-(9-(4-hydroxybutyl)-3,9-diazaspiro[5.5]undecan-3-yl)propyl 2-hexyldecanoate]: in series [1], the “Size (nm)” value was determined as 119 nm and the PDI came to 0.080. The “EC50 Hek293F (ng/well)” value in series [2] was 0.28 ng/well. For the same compound, the “EC50 Hela (ng/well)” value in series [3] was determined as 0.30 ng/well. This compound also had an EE % in series [4] of 99%.
With `CCCCCCCCCC(CCCC)C(=O)OCC(COC(=O)C(CCCCCC)CCCCCCCC)N1CCC2(CCN(CCCCO)CC2)CC1` (stereo not shown) [Example 45, 3-((2-hexyldecanoyl)oxy)-2-(9-(4-hydroxybutyl)-3,9-diazaspiro[5.5]undecan-3-yl)propyl 2-butylundecanoate], in series [1], the “Size (nm)” value is reported as 117 nm and the PDI stood at 0.060. The “EC50 Hek293F (ng/well)” value in series [2] is 1.1 ng/well. For the same compound, the “EC50 Hela (ng/well)” value in series [3] is reported as 1.1 ng/well. The EE % in series [4] is recorded as 99%.
In the case of `CCCCCCCCCCCCCCCC(=O)OCC(COC(=O)CCC(CCCC)C(CCCC)CCCC)N1CCC2(CCN(CCCCO)CC2)CC1` (stereo not shown) [Example 46, 3-((4,5-dibutylnonanoyl)oxy)-2-(9-(4-hydroxybutyl)-3,9-diazaspiro[5.5]undecan-3-yl)propyl palmitate], in series [1], the “Size (nm)” value was 92 nm and the PDI was 0.090. For the same compound, the “EC50 Hek293F (ng/well)” value in series [2] amounted to 24.6 ng/well. Also, the “EC50 Hela (ng/well)” value in series [3] was determined as 1.7 ng/well. Besides, the EE % in series [4] is reported as 99%.
Regarding `CCCCCCCC(CCCCCCC)C(=O)OCCC(CCOC(=O)C(CCCCCCC)CCCCCCC)N1CCC2(CCN(CCCCO)CC2)CC1` [Example 47, 3-(9-(4-hydroxybutyl)-3,9-diazaspiro[5.5]undecan-3-yl)pentane-1,5-diyl bis(2-heptylnonanoate)], in series [1], the “Size (nm)” value worked out at 147 nm and the PDI is 0.080. Moreover, in series [2], the “EC50 Hek293F (ng/well)” value is given as 5.9 ng/well. Also, the “EC50 Hela (ng/well)” value in series [3] was 4.6 ng/well. In series [4], this compound showed an EE % of 99%.
Regarding `CCCCCCCC(CCCCCCC)C(=O)OCC(COC(=O)C(CCCCCCC)CCCCCCC)N1CCC2(CCN(CCCCCO)C2)CC1` [Example 48, 2-(2-(5-hydroxypentyl)-2,8-diazaspiro[4.5]decan-8-yl)propane-1,3-diyl bis(2-heptylnonanoate)], in series [1], the “Size (nm)” value turned out to be 127 nm and the PDI amounted to 0.093. The “EC50 Hek293F (ng/well)” value in series [2] worked out at 0.76 ng/well. Further, the “EC50 Hela (ng/well)” value in series [3] is given as 1.0 ng/well. In series [4], this compound displayed an EE % of 100%.
